What follows are compounds tested against T1, 5-HT1A (Homo sapiens, UniProt P08908) (assay: In vitro radioligand binding assay, 5-HT1A, [3H]8-OH-DPAT). Details: human recombinant (HEK-293 cells).
T1 construct: expressed in transfected cells; host or cells: HEK-293 cells
T1 sequence (P08908 1-422): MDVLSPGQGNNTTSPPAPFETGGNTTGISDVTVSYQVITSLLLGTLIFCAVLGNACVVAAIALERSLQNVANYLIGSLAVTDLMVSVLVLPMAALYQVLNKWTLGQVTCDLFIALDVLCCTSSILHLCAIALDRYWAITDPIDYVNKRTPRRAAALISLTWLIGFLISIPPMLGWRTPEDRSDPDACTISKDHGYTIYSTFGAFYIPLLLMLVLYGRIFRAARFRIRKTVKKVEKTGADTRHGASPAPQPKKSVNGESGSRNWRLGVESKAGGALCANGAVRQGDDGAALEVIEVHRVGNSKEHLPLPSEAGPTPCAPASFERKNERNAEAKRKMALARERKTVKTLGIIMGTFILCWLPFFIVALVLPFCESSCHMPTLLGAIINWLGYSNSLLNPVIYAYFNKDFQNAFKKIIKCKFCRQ
Design: concentration or dose not given beside the values
Description: Certain compounds were tested by in vitro binding assays using standard procedures. […] These receptors and assays are well known to those skilled in the art, as exemplified by the following: Abramovitz, M. et al. (2000), Biochem. Biophys. Acta., 1483: 285-293 (EP4, IP (PGI2)); Aharony, D. et al. (1993), Mol. Pharmacol., 44: 356-363 (NK2); Ardati, A. et al. (1997), Mol. Pharmacol., 51: 816-824 (NOP (ORL1)); Bignon, E. et al. (1999), J. Pharmacol. Exp. Ther. 289: 742-751 (CCK1 (CCKA)); Bloomquist, B. T. et al. (1998), Biochem. Biophys. Res. Commun., 243: 474-479 (GAL2); Brockhaus, M. et al. (1990), Proc. Natl. Acad. Sci. U.S.A., 87: 3127-3131 (TNF-α); Brown, G. B. (1986), J. Neurosci., 6: 2064-2070 (Na+ channel (site 2)); Buchan, K. W. et al. (1994), Brit. J. Pharmacol., 112: 1251-1257 (ETA); Cesura, A. M. et al. (1990), Mol. Pharmacol., 37: 358-366 (MAO-A); Choi, D. S. et al. (1994), FEBS Lett., 352: 393-399 (5-HT2B); Clark, A. F. et al. (1996), Invest. Ophtalmol. Vis. Sci., 37: 805-813 (GR); Couvineau, A. et al. (1985), Biochem. J., 231: 139-143 (VPAC1 (VIP1)); Dorje, F. et al. (1991), J. Pharmacol. Exp. Ther., 256: 727-733 (M1, M2, M3, M4); Ferry, G. et al. (2001), Eur. J. Pharmacol., 417: 77-89 (PPARγ); Fuchs, S. et al. (2001), Mol. Med., 7: 115-124 (ETB); Fuhlendorff, J. et al. (1990), Proc. Natl. Acad. Sci. U.S.A., 87: 182-186 (Y2); Ganapathy M E. et al. (1999), J. Pharmacol. Exp. Ther., 289: 251-260 (sigma (non-selective)); Gopalakrishnan, M. et al. (1996), J. Pharmacol. Exp. Ther., 276: 289-297 (N neuronal α4β2); Greengrass, P. and Bremner, R. (1979), Eur. J. Pharmacol., 55: 323-326 (α1 (non-selective)); Grandy, D. K. et al. (1989), Proc. Natl. Acad. Sci. U.S.A., 86: 9762-9766 (D25); Guard, S. et al. (1993), Eur. J. Pharmacol., 240:177-184 (BB (non-selective)); Heuillet, E. et al. (1993), J. Neurochem., 60: 868-876 (NK1, P2X); Hope, A. G. et al. (1996), Brit. J. Pharmacol., 118: 1237-1245 (5-HT3); Hoyer, D. et al. (1985), Eur. J. Pharmacol., 118: 1-12 (5-HT1B); Hugues, M. et al. (1982), J. Biol. Chem., 257: 2762-2769 (5-HT2A, SKCa channel); Joseph, S. S. et al. (2004), Naun.-Sch. Arch. Pharm., 369: 525-532 (β2); Le, M. T. et al. (2005), Eur. J. Pharmacol., 513: 35-45 (AT1); Le Fur, G. et al. (1983), Life Sci., 33: 449-457) (BZD (peripheral); Lee, Y. M. et al. (1993), J. Biol. Chem., 268: 8164-8169 (CCK2 (CCKB)); Leurs, R. et al. (1994), Brit. J. Pharmacol., 112: 847-854 (H2); Levin, M. C. et al. (2002), J. Biol. Chem., 277: 30429-30435 (11); Lewin, A. H. et al. (1989), Mol. Pharmacol., 35: 189-194 (Cl− channel (GABA-gated)); Lukas, R. J. (1986), J. Neurochem., 46: 1936-1941 (N muscle-type); Luthin, D. R. et al. (1995), Mol. Pharmacol., 47: 307-313; (A2A); Mackenzie, R. G. et al. (1994), Eur. J. Pharmacol., 266: 79-85 (D3); Mulheron, J. G. et al. (1994), J. Biol. Chem., 269: 12954-12962 (5-HT1A); Meng, F. et al. (1993), Proc. Natl. Acad. Sci. U.S.A., 90: 9954-9958 (κ (KOP)); Monsma, F. J. et al. (1993), Mol. Pharmacol., 43: 320-327 (5-HT6); Neote, K. et al. (1993), Cell, 72: 415-425 (CCR1); Pacholczyk, T. et al. (1991), Nature, 350: 350-354 (sst (non-selective, norepinephrine transporter)); Peralta, E. G. et al. (1987), Embo. J., 6: 3923-3929 (M3); Pristupa, Z. B. et al. (1994), Mol. Pharmacol., 45: 125-135 (dopamine transporter); Pruneau, D. et al. (1998), Brit. J. Pharmacol., 125: 365-372 (B2); Rees, S. et al. (1994), FEBS Lett., 355: 242-246 (5-HT5a); Reynolds, I. J. et al. (1986), J. Pharmacol. Exp. Ther., 237: 731-738 (Ca2+ channel (L, verapamil site)); Rinaldi-Carmona, M. et al. (1996), J. Pharmacol. Exp. Ther., 278: 871-878 (CB1); Salvatore, C. A. et al. (1993), Proc. Natl. Acad. Sci. U.S.A., 90: 10365-10369 (A3); Sarau, H. M. et al. (1997), J. Pharmacol. Exp. Ther., 281: 1303-1311 (NK3); Schioth, H. B. et al. (1997), Neuropeptides, 31: 565-571 (MC4); Sharples, C. […]

| Compound | 5HT1a percent inhibition of specific binding [%] |
| --- | --- |
| Fc1cccc2c1[C@H]([C@@H]1CCCN1)OCC2 [Compound I-1, (S)-2-((R)-8-fluoroisochroman-1-yl)pyrrolidine] | 79 |
| Fc1ccc2c(c1)[C@H]([C@@H]1CCCN1)OCC2 [Compound I-5, (2S)-2-((R)-7-fluoroisochroman-1-yl)pyrrolidine] | 52 |
| Fc1ccc2c(c1)CCO[C@H]2[C@@H]1CCCN1 [Compound I-9, (S)-2-((R)-6-fluoroisochroman-1-yl)pyrrolidine] | 77 |
| Clc1ccc2c(c1)[C@H]([C@@H]1CCCN1)OCC2 [Compound I-29, (S)-2-((R)-7-chloroisochroman-1-yl)pyrrolidine] | 71 |
| Fc1cccc2c1[C@H]([C@@H]1CCN1)OCC2 [Compound I-83, (S)-2-((R)-8-fluoroisochroman-1-yl)azetidine] | 87 |
| Fc1ccc2c(c1)CCO[C@H]2[C@@H]1CCN1 [Compound I-90, (S)-2-((R)-6-fluoroisochroman-1-yl)azetidine] | 64 |

From patent US10336732B2, “1-heterocyclyl isochromanyl compounds and analogs for treating CNS disorders” (Sunovion Pharmaceuticals Inc., priority 2015, dated 2019)
